The test has as its target T1, IGFR kinase (Homo sapiens, UniProt P08069).
T1 construct: purchased Millipore
The experiment in a line: Enzyme assay (c), IGFR kinase, Caliper LabChip. The settings on record: 30 nM IGFR kinase, 6 uM ATP, 3 uM peptide mix; read-out: IGFR IC50. Format: biochemical.

T1 sequence (P08069 31-1367): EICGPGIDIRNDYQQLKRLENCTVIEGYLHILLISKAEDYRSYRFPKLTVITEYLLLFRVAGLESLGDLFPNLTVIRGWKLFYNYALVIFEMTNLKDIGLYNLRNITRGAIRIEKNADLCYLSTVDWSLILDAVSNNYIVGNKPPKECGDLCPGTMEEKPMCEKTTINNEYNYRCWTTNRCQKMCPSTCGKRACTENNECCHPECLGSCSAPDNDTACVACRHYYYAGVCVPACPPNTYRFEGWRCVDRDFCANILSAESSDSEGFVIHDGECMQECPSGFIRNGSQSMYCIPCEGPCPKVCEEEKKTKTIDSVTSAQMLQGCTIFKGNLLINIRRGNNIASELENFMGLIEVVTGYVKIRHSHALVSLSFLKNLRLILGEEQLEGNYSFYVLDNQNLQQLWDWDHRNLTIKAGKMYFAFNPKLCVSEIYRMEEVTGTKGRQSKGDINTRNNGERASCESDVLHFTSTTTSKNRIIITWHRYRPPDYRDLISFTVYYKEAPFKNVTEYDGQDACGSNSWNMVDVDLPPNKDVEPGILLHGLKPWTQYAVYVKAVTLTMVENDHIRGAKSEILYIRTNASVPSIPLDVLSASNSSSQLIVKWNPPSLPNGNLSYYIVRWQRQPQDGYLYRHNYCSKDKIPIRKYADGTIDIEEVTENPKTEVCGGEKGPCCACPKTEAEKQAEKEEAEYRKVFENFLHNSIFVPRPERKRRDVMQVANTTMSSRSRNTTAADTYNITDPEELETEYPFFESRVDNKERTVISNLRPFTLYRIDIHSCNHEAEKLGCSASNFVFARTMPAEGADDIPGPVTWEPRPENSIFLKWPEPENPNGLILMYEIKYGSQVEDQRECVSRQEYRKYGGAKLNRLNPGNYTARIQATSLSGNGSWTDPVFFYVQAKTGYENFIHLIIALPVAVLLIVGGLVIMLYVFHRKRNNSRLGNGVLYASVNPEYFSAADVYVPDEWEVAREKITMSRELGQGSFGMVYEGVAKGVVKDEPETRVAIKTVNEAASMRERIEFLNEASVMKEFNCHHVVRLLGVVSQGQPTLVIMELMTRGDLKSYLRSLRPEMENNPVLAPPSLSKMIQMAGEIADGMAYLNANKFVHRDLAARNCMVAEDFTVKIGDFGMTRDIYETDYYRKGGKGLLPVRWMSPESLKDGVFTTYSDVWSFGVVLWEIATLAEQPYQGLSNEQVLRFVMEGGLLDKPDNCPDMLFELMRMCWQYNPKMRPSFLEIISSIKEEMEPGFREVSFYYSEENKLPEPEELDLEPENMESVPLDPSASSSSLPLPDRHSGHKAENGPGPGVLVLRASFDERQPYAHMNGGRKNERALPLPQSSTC

As usually defined, the IC50 is the concentration needed to halve the response being measured. Take `COc1cc(CN2CCC[C@@H](O)C2)ccc1Nc1ncc(Cl)c(-c2cnc3ccccn23)n1` [Example 21.12, (3R)-1-[[4-[(5-chloro-4-imidazo[1,2-a]pyridin-3-yl-pyrimidin-2-yl)amino]-3-methoxy-phenyl]methyl]piperidin-3-ol]: the IC50 was 24 nM. For `COc1cc(N2CCN(C(C)=O)CC2)ccc1Nc1ncc(Cl)c(-c2cnc3ccc(Br)cn23)n1` [Example 126.1, 1-[4-[4-[[4-(6-bromoimidazo[1,2-a]pyridin-3-yl)-5-chloropyrimidin-2-yl]amino]-3-methoxyphenyl]piperazin-1-yl]ethanone], the IC50 is 9 nM.

Regarding `COc1cc(C2CCCN(C(C)=O)C2)ccc1Nc1ncc(Cl)c(-c2cnc3ccccn23)n1` (stereo not shown) [Example 3.29, 1-[3-[4-[(5-chloro-4-imidazo[1,2-a]pyridin-3-yl-pyrimidin-2-yl)amino]-3-methoxy-phenyl]-1-piperidyl]ethanone], the IC50 was determined as 6 nM.

With `CNCC(=O)N1CCC(c2ccc(Nc3ncc(Cl)c(-c4cnc5c(F)cccn45)n3)c(OC)c2)CC1` [Example 182, 1-[4-[4-[[5-chloro-4-(8-fluoroimidazo[1,2-a]pyridin-3-yl)pyrimidin-2-yl]amino]-3-methoxy-phenyl]-1-piperidyl]-2-(methylamino)ethanone], the IC50 was determined as 1 nM. For `COc1cc(N2CCN(C(C)(C)CO)CC2)ccc1Nc1ncc(C)c(-c2cnc3ccc(F)cn23)n1` [Example 260, 2-[4-[4-[[4-(6-fluoroimidazo[1,2-a]pyridin-3-yl)-5-methyl-pyrimidin-2-yl]amino]-3-methoxy-phenyl]piperazin-1-yl]-2-methyl-propan-1-ol], the concentration for half-maximal inhibition (IC50) is 11 nM. As for `COc1cc(N2CCN(C(C)=O)CC2)ccc1Nc1ncc(Cl)c(-c2cnc3cc(CN4CCOCC4)ccn23)n1` [Example 187, 1-[4-[4-[[5-chloro-4-[7-(morpholinomethyl)imidazo[1,2-a]pyridin-3-yl]pyrimidin-2-yl]amino]-3-methoxy-phenyl]piperazin-1-yl]ethanone], the figure is 43 nM; as for `COc1cc(N2CCCC2)ccc1Nc1ncc(F)c(-c2cnc3ccccn23)n1` [Example 80, 5-fluoro-4-imidazo[1,2-a]pyridin-3-yl-N-(2-methoxy-4-pyrrolidin-1-yl-phenyl)pyrimidin-2-amine], 133 nM.

On to `COc1cc(N2CCN(C(=O)C3CCCN3)CC2)ccc1Nc1ncc(Cl)c(-c2cnc3ccccn23)n1` (stereo not shown) [Example 24.3, [4-[4-[(5-chloro-4-imidazo[1,2-a]pyridin-3-ylpyrimidin-2-yl)amino]-3-methoxyphenyl]piperazin-1-yl]-pyrrolidin-2-yl methanone], for which the IC50 was 5 nM.

In the case of `COc1cc(OC2CN(C(=O)[C@H](C)OC)C2)ccc1Nc1ncc(Cl)c(-c2cnc3ccccn23)n1` [Example 27.2, (2S)-1-[3-[4-[(5-chloro-4-imidazo[1,2-a]pyridin-3-yl-pyrimidin-2-yl)amino]-3-methoxy-phenoxy]azetidin-1-yl]-2-methoxy-propan-1-one], the IC50 was found to be 36 nM. As for `COc1cc(CC(CO)CO)ccc1Nc1ncc(Cl)c(-c2cnn3ccccc23)n1` [Example 190, 2-[[4-[(5-chloro-4-pyrazolo[1,5-a]pyridin-3-yl-pyrimidin-2-yl)amino]-3-methoxy-phenyl]methyl]propane-1,3-diol], the figure is 2 nM; as for `CNC(=O)CN1CCN(c2ccc(Nc3ncc(Cl)c(-c4cnc5ccccn45)n3)c(OC)c2)CC1` [Example 66, 2-[4-[4-[(5-chloro-4-imidazo[1,2-a]pyridin-3-yl-pyrimidin-2-yl)amino]-3-methoxy-phenyl]piperazin-1-yl]-N-methyl-acetamide], 15 nM; as for `COc1cc(C2CCN(C(=O)[C@@H](C)O)CC2)ccc1Nc1ncc(Cl)c(-c2cnc3ccc(F)cn23)n1` [Example 246, (2R)-1-[4-[4-[[5-chloro-4-(6-fluoroimidazo[1,2-a]pyridin-3-yl)pyrimidin-2-yl]amino]-3-methoxyphenyl]-1-piperidyl]-2-hydroxy-propan-1-one], 4 nM. `CNCC(=O)N1CCN(c2ccc(OC)c(Nc3ncc(Cl)c(-c4cnc5ccccn45)n3)c2)CC1` [Example 145, 1-[4-[3-[(5-chloro-4-imidazo[1,2-a]pyridin-3-yl-pyrimidin-2-yl)amino]-4-methoxy-phenyl]piperazin-1-yl]-2-(methylamino)ethanone]: the IC50 was determined as 59 nM. Next, `COc1cc(N2CCN(C(C)=O)CC2)ccc1Nc1ncc(C2CC2)c(-c2cnc3c(F)cccn23)n1` [Example 201, 1-[4-[4-[[5-cyclopropyl-4-(8-fluoroimidazo[1,2-a]pyridin-3-yl)pyrimidin-2-yl]amino]-3-methoxy-phenyl]piperazin-1-yl]ethanone]: 88 nM; `COc1cc(CNCCO)ccc1Nc1ncc(Cl)c(-c2cnc3ccccn23)n1` [Example 21.1, 2-[[4-[(5-chloro-4-imidazo[1,2-a]pyridin-3-yl-pyrimidin-2-yl)amino]-3-methoxy-phenyl]methylamino]ethanol]: 19 nM. Regarding `CNCC(=O)N1CC2CN(c3ccc(Nc4ncc(Cl)c(-c5cnc6c(F)cccn56)n4)c(OC)c3)CC(C1)O2` [Example 208, 1-[3-[4-[[5-chloro-4-(8-fluoroimidazo[1,2-a]pyridin-3-yl)pyrimidin-2-yl]amino]-3-methoxy-phenyl]-9-oxa-3,7-diazabicyclo[3.3.1]nonan-7-yl]-2-(methylamino)ethanone], the IC50 came to 26 nM. Next, `COc1cc(C(=O)N2C[C@@H]3C[C@H]2CN3)ccc1Nc1ncc(Cl)c(-c2cnc3ccccn23)n1` [Example 29, [4-[(5-chloro-4-imidazo[1,2-a]pyridin-3-yl-pyrimidin-2-yl)amino]-3-methoxy-phenyl]-[(1S,4S)-2,5-diazabicyclo[2.2.1]heptan-5-yl]methanone]: 17 nM; `CCNCC(=O)N1CCN(c2ccc(Nc3ncc(Cl)c(-c4cnc5ccccn45)n3)c(OC)c2)CC1` [Example 24.11, 1-[4-[4-[(5-chloro-4-imidazo[1,2-a]pyridin-3-yl-pyrimidin-2-yl)amino]-3-methoxy-phenyl]piperazin-1-yl]-2-ethylamino-ethanone]: 15 nM; `COc1cc(N2CCN(CCO)CC2)ccc1Nc1ncc(OC)c(-c2cnc3ccccn23)n1` [Example 95, 2-[4-[4-[(4-imidazo[1,2-a]pyridin-3-yl-5-methoxy-pyrimidin-2-yl)amino]-3-methoxy-phenyl]piperazin-1-yl]ethanol]: 60 nM.

Regarding `COc1cc(N2CC3CN(CCO)CC(C2)O3)ccc1Nc1ncc(Cl)c(-c2cnc3c(F)cccn23)n1` [Example 184, 2-[7-[4-[[5-chloro-4-(8-fluoroimidazo[1,2-a]pyridin-3-yl)pyrimidin-2-yl]amino]-3-methoxy-phenyl]-9-oxa-3,7-diazabicyclo[3.3.1]nonan-3-yl]ethanol], the IC50 was 7 nM. On to `CCC(=O)N1CCN(c2ccc(Nc3ncc(Cl)c(-c4cnc5ccccn45)n3)c(OC)c2)CC1` [Example 42, 1-[4-[4-[(5-chloro-4-imidazo[1,2-a]pyridin-3-yl-pyrimidin-2-yl)amino]-3-methoxy-phenyl]piperazin-1-yl]propan-1-one], for which the IC50 came out at 18 nM. On to `COc1cc(CNCCCO)ccc1Nc1ncc(Cl)c(-c2cnc3ccccn23)n1` [Example 21.3, 3-[[4-[(5-chloro-4-imidazo[1,2-a]pyridin-3-yl-pyrimidin-2-yl)amino]-3-methoxy-phenyl]methylamino]propan-1-ol], for which the IC50 was determined as 20 nM. Next, `COc1cc(N2CCN(C[C@@H](C)O)CC2)ccc1Nc1ncc(Cl)c(-c2cnc3ccccn23)n1` [Example 51, (2R)-1-[4-[4-[(5-chloro-4-imidazo[1,2-a]pyridin-3-yl-pyrimidin-2-yl)amino]-3-methoxy-phenyl]piperazin-1-yl]propan-2-ol]: 8 nM; `COc1cc(C2CCN(C(=O)CO)CC2)ccc1Nc1ncc(Cl)c(-c2cnc3cc(C)ccn23)n1` [Example 245, 1-[4-[4-[[5-chloro-4-(7-methylimidazo[1,2-a]pyridin-3-yl)pyrimidin-2-yl]amino]-3-methoxy-phenyl]-1-piperidyl]-2-hydroxy-ethanone]: 4 nM. As for `COc1cc(N(C)CC(=O)N(C)C)ccc1Nc1ncc(Cl)c(-c2cnc3c(F)cccn23)n1` [Example 225, 2-[4-[[5-chloro-4-(8-fluoroimidazo[1,2-a]pyridin-3-yl)pyrimidin-2-yl]amino]-3-methoxy-N-methyl-anilino]-N,N-dimethyl-acetamide], the figure is 130 nM; as for `COc1cc(N2CCN(C)CC2)ccc1Nc1ncc(F)c(-c2cnc3ccccn23)n1` [Example 119, 5-fluoro-4-imidazo[1,2-a]pyridin-3-yl-N-[2-methoxy-4-(4-methylpiperazin-1-yl)phenyl]pyrimidin-2-amine], 95 nM. Consider `COc1cc(C(CO)CO)ccc1Nc1ncc(Cl)c(-c2cnn3ccccc23)n1` [Example 148, 2-[4-[(5-chloro-4-pyrazolo[1,5-a]pyridin-3-yl-pyrimidin-2-yl)amino]-3-methoxy-phenyl]propane-1,3-diol], for which the IC50 is 17 nM. For `COc1cc(OC2CCN(C(=O)C(C)O)CC2)ccc1Nc1ncc(Cl)c(-c2cnc3ccccn23)n1` (stereo not shown) [Example 9, 1-[4-[4-[(5-chloro-4-imidazo[1,2-a]pyridin-3-yl-pyrimidin-2-yl)amino]-3-methoxy-phenoxy]-1-piperidyl]-2-hydroxy-propan-1-one], the IC50 was determined as 21 nM.

Regarding `COc1cc(N2CCN(C(C)=O)C(CO)C2)ccc1Nc1ncc(Cl)c(-c2cnc3ccccn23)n1` (stereo not shown) [Example 3.38, 1-[4-[4-[(5-chloro-4-imidazo[1,2-a]pyridin-3-yl-pyrimidin-2-yl)amino]-3-methoxy-phenyl]-2-(hydroxymethyl)piperazin-1-yl]ethanone], the IC50 is 21 nM. Next, `COc1cc(O[C@H]2CCN(C(C)=O)C2)ccc1Nc1ncc(Cl)c(-c2cnc3ccccn23)n1` [Example 13, 1-[(3S)-3-[4-[(5-chloro-4-imidazo[1,2-a]pyridin-3-yl-pyrimidin-2-yl)amino]-3-methoxy-phenoxy]pyrrolidin-1-yl]ethanone]: 20 nM; `COc1cc(C2CN(C(=O)[C@H](C)O)C2)ccc1Nc1ncc(Cl)c(-c2cnn3ccccc23)n1` [Example 135A]: 11 nM.

For the origin of these results see US20100105655A1, “NOVEL COMPOUNDS 515” (ASTRAZENECA AB, priority 2008, published 2010).
